Assay results taken from patent US9580390B2, “Indazole compounds as kinase inhibitors and method of treating cancer with same” (University Health Network, priority 2011, dated 2017).
Read-outs that look alike come from different tables or passages of the source.

Experiments:
[1] = test system: colon cancer cells (HCT116); test: Cancer cell line growth inhibition (SRB assay); type: cell-based; settings: Homo sapiens, HCT-116, read-out: Cancer Cell Line GI50 Range HCT116
[2] = test system: ovarian cancer cells (PA-1); test: Cancer cell line growth inhibition (SRB assay); type: cell-based; settings: read-out: Cancer Cell Line GI50 Range PA-1
[3] = biological target: T1, human TTK (Homo sapiens, UniProt P33981); test: TTK inhibition assay (indirect ELISA); type: biochemical; settings: read-out: TTK IC50 Range
T1 construct: amino terminal GST fusion of full length human TTK; purchased Invitrogen
T1 sequence (P33981 1-857): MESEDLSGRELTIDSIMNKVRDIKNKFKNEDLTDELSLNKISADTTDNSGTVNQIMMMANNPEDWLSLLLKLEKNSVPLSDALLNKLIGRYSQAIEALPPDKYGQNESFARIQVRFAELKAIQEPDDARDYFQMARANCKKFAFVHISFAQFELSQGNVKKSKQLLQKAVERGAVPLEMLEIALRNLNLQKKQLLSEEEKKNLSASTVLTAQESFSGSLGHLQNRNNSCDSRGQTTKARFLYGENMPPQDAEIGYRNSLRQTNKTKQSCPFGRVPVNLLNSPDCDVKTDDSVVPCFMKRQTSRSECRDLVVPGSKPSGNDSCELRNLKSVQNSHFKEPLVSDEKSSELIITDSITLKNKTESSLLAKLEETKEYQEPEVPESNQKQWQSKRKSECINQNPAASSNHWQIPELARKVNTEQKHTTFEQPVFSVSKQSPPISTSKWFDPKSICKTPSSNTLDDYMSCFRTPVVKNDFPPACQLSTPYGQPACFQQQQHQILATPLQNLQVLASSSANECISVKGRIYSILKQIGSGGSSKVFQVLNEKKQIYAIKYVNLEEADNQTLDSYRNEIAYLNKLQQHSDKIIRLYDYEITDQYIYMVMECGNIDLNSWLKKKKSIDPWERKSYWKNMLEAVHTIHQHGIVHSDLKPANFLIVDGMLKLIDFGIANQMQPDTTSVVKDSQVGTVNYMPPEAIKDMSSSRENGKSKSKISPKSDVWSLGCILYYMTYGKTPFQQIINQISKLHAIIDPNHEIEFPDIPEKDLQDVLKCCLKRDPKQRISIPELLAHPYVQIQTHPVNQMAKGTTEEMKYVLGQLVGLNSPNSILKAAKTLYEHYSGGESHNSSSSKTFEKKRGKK

[4] = HCT116 colon cancer cells, SRB assay
[5] = PA-1 ovarian cancer cells, SRB assay

GI50 [1, 4] | GI50 [2, 5] | IC50 [3] | GI50 [1] | GI50 ([2]; Homo sapiens, PA-1) | Structure (SMILES)
100 to 500 nM | 100 to 500 nM | < 100 nM | – | – | O=C(NCC1(N2CCOCC2)CCCC1)c1ccc2[nH]nc(-c3ccc(O[C@@H]4CCC[C@H](O)C4)cc3)c2c1 (relative stereo) [Example A496, rel-3-(4-(((1R,3S)-3-hydroxycyclohexyl)oxy)phenyl)-N-((1-morpholinocyclopentyl)methyl)-1H-indazole-5-carboxamide]
100 to 500 nM | 100 to 500 nM | < 100 nM | – | – | O=C(NCC1(N2CCOCC2)CCCCC1)c1ccc2[nH]nc(-c3ccc(O[C@@H]4CCC[C@H](O)C4)cc3)c2c1 (relative stereo) [Example A497, cis-3-(4-(((1R,3S)-3-hydroxycyclohexyl)oxy)phenyl)-N-((1-morpholinocyclohexyl)methyl)-1H-indazole-5-carboxamide]
< 100 nM | < 100 nM | < 100 nM | – | – | O=C(Nc1ccc2[nH]nc(-c3ccc(NC4CCC(O)CC4)cc3)c2c1)C(c1ccsc1)N1CCCC1 (single isomer, unassigned) [Example A105, rel-N-(3-(4-(((1r,4r)-4-hydroxycyclohexyl)amino)phenyl)-1H-indazol-5-yl)-2-(pyrrolidin-1-yl)-2-(thiophen-3-yl)acetamide]
> 500 nM | – | 100 to 500 nM | – | – | O=C(NC(c1ccccc1)C1CC1)c1ccc2[nH]nc(-c3cccc(N4CCOCC4)c3)c2c1 (stereo not drawn) [Example A61, N-(cyclopropyl(phenyl)methyl)-3-(3-morpholinophenyl)-1H-indazole-5-carboxamide]
> 500 nM | – | 100 to 500 nM | – | – | Cc1cc(-c2n[nH]c3ccc(C(=O)NC(c4ccccc4)C4CC4)cc23)ccc1N1CCOCC1 (stereo not drawn) [Example A64, N-(cyclopropyl(phenyl)methyl)-3-(3-methyl-4-morpholinophenyl)-1H-indazole-5-carboxamide]
> 500 nM | – | 100 to 500 nM | – | – | O=C(NC(c1ccccc1)C1CC1)c1ccc2[nH]nc(-c3ccc(N4CCOCC4)c(F)c3)c2c1 (stereo not drawn) [Example A65, N-(cyclopropyl(phenyl)methyl)-3-(3-fluoro-4-morpholinophenyl)-1H-indazole-5-carboxamide]
> 500 nM | – | > 500 nM | – | – | O=C(Nc1ccc2[nH]nc(-c3ccc(N4CCOCC4)cc3)c2c1)Nc1ccccc1Cl [Example A66, 1-(2-chlorophenyl)-3-(3-(4-morpholinophenyl)-1H-indazol-5-yl)urea]
100 to 500 nM | 100 to 500 nM | 100 to 500 nM | – | – | COc1ccc(NC(=O)Nc2ccc3[nH]nc(-c4ccc(OC5CCN(C)CC5)cc4)c3c2)c(C)c1 [Example A81, 1-(4-methoxy-2-methylphenyl)-3-(3-(4-((1-methylpiperidin-4-yl)oxy)phenyl)-1H-indazol-5-yl)urea]
> 500 nM | > 500 nM | > 500 nM | – | – | CN1CCN(C(=O)c2cccc(-c3n[nH]c4ccc(NC(=O)C(c5ccsc5)N5CCCC5)cc34)c2)CC1 (stereo not drawn) [Example A96, N-(3-(3-(4-Methylpiperazine-1-carbonyl)phenyl)-1H-indazol-5-yl)-2-(pyrrolidin-1-yl)-2-(thiophen-3-yl)acetamide]
< 100 nM | < 100 nM | < 100 nM | – | – | O=C(NC(c1ccccc1)C1CC1)c1ccc2[nH]nc(-c3ccc(N[C@H]4CC[C@H](O)CC4)cc3)c2c1 (stereo partly drawn) [Example A106, trans-N-(cyclopropyl(phenyl)methyl)-3-(4-(((1r,4r)-4-hydroxycyclohexyl)amino)phenyl)-1H-indazole-5-carboxamide]
> 500 nM | > 500 nM | 100 to 500 nM | – | – | CC(C)(C)OC(=O)N1CCC(Oc2ccc(-c3n[nH]c4ccc(NC(=O)C(c5ccsc5)N5CCCC5)cc34)cc2)CC1 (stereo not drawn) [Example A115, tert-butyl 4-(4-(5-(2-(pyrrolidin-1-yl)-2-(thiophen-3-yl)acetamido)-1H-indazol-3-yl)phenoxy)piperidine-1-carboxylate]
100 to 500 nM | 100 to 500 nM | < 100 nM | – | – | Cc1ccccc1CC1(NC(=O)c2ccc3[nH]nc(-c4ccc(OC5CCN(C)CC5)cc4)c3c2)CC1 [Example A127, N-(1-(2-methylbenzyl)cyclopropyl)-3-(4-((1-methylpiperidin-4-yl)oxy)phenyl)-1H-indazole-5-carboxamide]
> 500 nM | > 500 nM | < 100 nM | – | – | O=C(NC(c1ccccc1)C1CC1)c1ccc2[nH]nc(-c3ccc(OCCn4ccnc4)cc3)c2c1 (stereo not drawn) [Example A165, 3-(4-(2-(1H-imidazol-1-yl)ethoxy)phenyl)-N-(cyclopropyl(phenyl)methyl)-1H-indazole-5-carboxamide]
– | – | < 100 nM | 100 to 500 nM | 100 to 500 nM | O=C(NC(c1ccccc1)C(F)F)c1ccc2[nH]nc(-c3ccc(OC4CCN(C5COC5)CC4)cc3)c2c1 (stereo not drawn) [Example A226, N-(2,2-difluoro-1-phenylethyl)-3-(4-((1-(oxetan-3-yl)piperidin-4-yl)oxy)phenyl)-1H-indazole-5-carboxamide]
– | – | < 100 nM | < 100 nM | < 100 nM | C[C@@H](O)CN1CCC(Oc2ccc(-c3n[nH]c4ccc(C(=O)N[C@H](c5ccccn5)C5CCCC5)cc34)cc2)CC1 [Example A230, N-((S)-cyclopentyl(pyridin-2-yl)methyl)-3-(4-((1-((R)-2-hydroxypropyl)piperidin-4-yl)oxy)phenyl)-1H-indazole-5-carboxamide]
– | – | < 100 nM | < 100 nM | < 100 nM | CC(C)(O)CN1CCC(Oc2ccc(-c3n[nH]c4ccc(C(=O)N[C@H](c5ccccn5)C5CCCC5)cc34)cc2)CC1 [Example A231, (S)-N-(cyclopentyl(pyridin-2-yl)methyl)-3-(4-((1-(2-hydroxy-2-methylpropyl)piperidin-4-yl)oxy)phenyl)-1H-indazole-5-carboxamide]
– | – | < 100 nM | < 100 nM | < 100 nM | CC(C)[C@H](NC(=O)c1ccc2[nH]nc(-c3ccc(OC4CCN(CCO)CC4)cc3)c2c1)c1ccccc1Cl [Example A232, (S)-N-(1-(2-chlorophenyl)-2-methylpropyl)-3-(4-((1-(2-hydroxyethyl)piperidin-4-yl)oxy)phenyl)-1H-indazole-5-carboxamide]
– | – | < 100 nM | < 100 nM | < 100 nM | O=C(N[C@H](c1ccccn1)C1CCCC1)c1ccc2[nH]nc(-c3ccc(OC4CCN(CCO)CC4)cc3)c2c1 [Example A233, (S)-N-(cyclopentyl(pyridin-2-yl)methyl)-3-(4-((1-(2-hydroxyethyl)piperidin-4-yl)oxy)phenyl)-1H-indazole-5-carboxamide]
– | – | < 100 nM | 100 to 500 nM | 100 to 500 nM | CC(C)CC(NC(=O)c1ccc2[nH]nc(-c3ccc(OC4CCN(C5COC5)CC4)cc3)c2c1)c1ccccc1 (stereo not drawn) [Example A290, N-(3-methyl-1-phenylbutyl)-3-(4-((1-(oxetan-3-yl)piperidin-4-yl)oxy)phenyl)-1H-indazole-5-carboxamide]
> 500 nM | – | > 500 nM | – | – | CN(C)C1(CNC(=O)c2ccc3[nH]nc(-c4ccc(N5CCOCC5)cc4)c3c2)CCCCC1 [Example A450, N-((1-(dimethylamino)cyclohexyl)methyl)-3-(4-morpholinophenyl)-1H-indazole-5-carboxamide]
> 500 nM | – | 100 to 500 nM | – | – | C[C@@H]1CN(C2(CNC(=O)c3ccc4[nH]nc(-c5ccc(N6CCOCC6)cc5)c4c3)CCCCC2)C[C@H](C)O1 [Example A451, N((1-((2S,6R)-2,6-dimethylmorpholino)cyclohexyl)methyl)-3-(4-morpholinophenyl)-1H-indazole-5-carboxamide]
> 500 nM | – | < 100 nM | – | – | C[C@@H]1CN(C2(CNC(=O)c3ccc4[nH]nc(-c5ccc(OC6CCN(C)CC6)cc5)c4c3)CCCCC2)C[C@H](C)O1 [Example A452, N-((1-((2S,6R)-2,6-dimethylmorpholino)cyclohexyl)methyl)-3-(4-((1-methylpiperidin-4-yl)oxy)phenyl)-1H-indazole-5-carboxamide]

Structure (SMILES) | GI50 [1, 4] | GI50 [2, 5] | IC50 [3] | GI50 [1] | GI50 ([2]; Homo sapiens, PA-1)
O=C(NCC1(N2CCCCC2)CCCCC1)c1ccc2[nH]nc(-c3ccc(N4CCOCC4)cc3)c2c1 [Example A446, 3-(4-morpholinophenyl)-N-((1-(piperidin-1-yl)cyclohexyl)methyl)-1H-indazole-5-carboxamide] | 100 to 500 nM | – | 100 to 500 nM | – | –
CN1CCN(C2(CNC(=O)c3ccc4[nH]nc(-c5ccc(N6CCOCC6)cc5)c4c3)CCCCC2)CC1 [Example A448, N-((1-(4-methylpiperazin-1-yl)cyclohexyl)methyl)-3-(4-morpholinophenyl)-1H-indazole-5-carboxamide] | 100 to 500 nM | – | < 100 nM | – | –
